Source: paper PMC4774911, “Biochemical Screening of Five Protein Kinases from Plasmodium falciparum against 14,000 Cell-Active Compounds” (PLoS ONE, 2016)
“And” between values parts separate entries of the source, which are not always exact repeats. Equal entries are not always repeated.

Legend:
Experiment in all cases: biochemical
[1] = target: TYK2 (Homo sapiens, UniProt P29597)
[2] = target: GSK3A (Homo sapiens, UniProt P49840)
[3] = target: T1, PRKD2 (Homo sapiens, UniProt Q9BZL6)
T1 sequence (Q9BZL6 1-878): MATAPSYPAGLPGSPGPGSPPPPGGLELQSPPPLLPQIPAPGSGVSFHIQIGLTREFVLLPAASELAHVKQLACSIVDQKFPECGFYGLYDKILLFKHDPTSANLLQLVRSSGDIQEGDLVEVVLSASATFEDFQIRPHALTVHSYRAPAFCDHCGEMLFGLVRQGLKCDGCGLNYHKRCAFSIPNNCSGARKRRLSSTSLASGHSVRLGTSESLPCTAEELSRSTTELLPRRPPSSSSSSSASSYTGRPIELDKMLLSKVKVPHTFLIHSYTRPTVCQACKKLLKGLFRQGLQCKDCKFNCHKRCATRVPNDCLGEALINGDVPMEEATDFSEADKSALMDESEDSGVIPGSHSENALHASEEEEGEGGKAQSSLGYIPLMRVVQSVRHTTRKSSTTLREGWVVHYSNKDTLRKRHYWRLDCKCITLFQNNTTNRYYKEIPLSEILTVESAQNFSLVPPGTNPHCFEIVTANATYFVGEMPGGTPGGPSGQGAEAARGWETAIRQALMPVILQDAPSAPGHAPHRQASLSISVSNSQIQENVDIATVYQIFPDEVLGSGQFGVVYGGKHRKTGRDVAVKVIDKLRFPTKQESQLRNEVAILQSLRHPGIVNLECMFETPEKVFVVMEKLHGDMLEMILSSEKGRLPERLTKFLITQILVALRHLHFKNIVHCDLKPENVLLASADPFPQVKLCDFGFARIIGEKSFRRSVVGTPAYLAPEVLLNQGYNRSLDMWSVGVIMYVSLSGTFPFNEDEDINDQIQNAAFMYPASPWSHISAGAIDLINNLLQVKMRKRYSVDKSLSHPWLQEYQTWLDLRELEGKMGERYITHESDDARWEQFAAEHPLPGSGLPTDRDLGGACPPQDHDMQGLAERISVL

[4] = target: T2, EPHB6 (Homo sapiens, UniProt O15197)
T2 sequence (O15197 1-1021): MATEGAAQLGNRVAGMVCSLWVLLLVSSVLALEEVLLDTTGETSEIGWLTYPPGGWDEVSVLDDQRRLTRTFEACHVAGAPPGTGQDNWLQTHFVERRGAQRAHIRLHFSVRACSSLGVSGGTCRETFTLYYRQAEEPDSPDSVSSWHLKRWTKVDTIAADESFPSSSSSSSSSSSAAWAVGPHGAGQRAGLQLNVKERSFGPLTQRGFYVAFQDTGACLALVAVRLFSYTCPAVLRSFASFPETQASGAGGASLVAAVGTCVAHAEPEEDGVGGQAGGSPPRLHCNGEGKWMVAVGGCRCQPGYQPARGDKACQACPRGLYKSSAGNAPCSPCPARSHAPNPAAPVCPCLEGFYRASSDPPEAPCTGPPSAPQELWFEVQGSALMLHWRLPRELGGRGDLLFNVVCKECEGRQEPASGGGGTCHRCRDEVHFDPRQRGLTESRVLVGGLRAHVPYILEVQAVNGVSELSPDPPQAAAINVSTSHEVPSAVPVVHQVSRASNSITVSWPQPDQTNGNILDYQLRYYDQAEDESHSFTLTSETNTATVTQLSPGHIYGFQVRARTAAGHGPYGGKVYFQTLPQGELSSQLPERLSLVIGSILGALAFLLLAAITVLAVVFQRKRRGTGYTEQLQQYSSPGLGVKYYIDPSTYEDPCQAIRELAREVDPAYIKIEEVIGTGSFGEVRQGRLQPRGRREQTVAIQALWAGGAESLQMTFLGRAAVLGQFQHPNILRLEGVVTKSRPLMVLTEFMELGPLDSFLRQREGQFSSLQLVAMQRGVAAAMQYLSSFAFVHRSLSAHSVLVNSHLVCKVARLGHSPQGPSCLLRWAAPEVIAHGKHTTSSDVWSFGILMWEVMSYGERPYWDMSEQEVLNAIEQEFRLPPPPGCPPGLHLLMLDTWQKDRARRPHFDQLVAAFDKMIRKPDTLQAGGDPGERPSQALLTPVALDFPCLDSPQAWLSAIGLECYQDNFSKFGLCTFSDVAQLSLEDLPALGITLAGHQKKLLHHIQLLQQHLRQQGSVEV

[5] = target: CSK (Homo sapiens, UniProt P41240)
[6] = target: BTK (Homo sapiens, UniProt Q06187)
[7] = target: T3, PRKX (Homo sapiens, UniProt P51817)
T3 sequence (P51817 1-358): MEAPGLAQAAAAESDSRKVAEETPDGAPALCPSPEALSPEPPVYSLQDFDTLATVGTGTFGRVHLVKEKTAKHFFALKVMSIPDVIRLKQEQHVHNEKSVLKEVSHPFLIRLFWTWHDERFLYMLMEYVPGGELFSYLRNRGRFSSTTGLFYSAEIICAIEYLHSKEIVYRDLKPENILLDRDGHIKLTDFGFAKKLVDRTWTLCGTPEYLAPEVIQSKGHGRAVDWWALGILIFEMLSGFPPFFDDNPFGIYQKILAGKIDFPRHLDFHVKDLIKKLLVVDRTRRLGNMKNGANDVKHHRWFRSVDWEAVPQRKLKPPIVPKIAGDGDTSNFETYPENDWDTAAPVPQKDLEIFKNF

[8] = target: AAK1 (Homo sapiens, UniProt Q2M2I8)
AAK1, sequence (Q2M2I8 whole entry): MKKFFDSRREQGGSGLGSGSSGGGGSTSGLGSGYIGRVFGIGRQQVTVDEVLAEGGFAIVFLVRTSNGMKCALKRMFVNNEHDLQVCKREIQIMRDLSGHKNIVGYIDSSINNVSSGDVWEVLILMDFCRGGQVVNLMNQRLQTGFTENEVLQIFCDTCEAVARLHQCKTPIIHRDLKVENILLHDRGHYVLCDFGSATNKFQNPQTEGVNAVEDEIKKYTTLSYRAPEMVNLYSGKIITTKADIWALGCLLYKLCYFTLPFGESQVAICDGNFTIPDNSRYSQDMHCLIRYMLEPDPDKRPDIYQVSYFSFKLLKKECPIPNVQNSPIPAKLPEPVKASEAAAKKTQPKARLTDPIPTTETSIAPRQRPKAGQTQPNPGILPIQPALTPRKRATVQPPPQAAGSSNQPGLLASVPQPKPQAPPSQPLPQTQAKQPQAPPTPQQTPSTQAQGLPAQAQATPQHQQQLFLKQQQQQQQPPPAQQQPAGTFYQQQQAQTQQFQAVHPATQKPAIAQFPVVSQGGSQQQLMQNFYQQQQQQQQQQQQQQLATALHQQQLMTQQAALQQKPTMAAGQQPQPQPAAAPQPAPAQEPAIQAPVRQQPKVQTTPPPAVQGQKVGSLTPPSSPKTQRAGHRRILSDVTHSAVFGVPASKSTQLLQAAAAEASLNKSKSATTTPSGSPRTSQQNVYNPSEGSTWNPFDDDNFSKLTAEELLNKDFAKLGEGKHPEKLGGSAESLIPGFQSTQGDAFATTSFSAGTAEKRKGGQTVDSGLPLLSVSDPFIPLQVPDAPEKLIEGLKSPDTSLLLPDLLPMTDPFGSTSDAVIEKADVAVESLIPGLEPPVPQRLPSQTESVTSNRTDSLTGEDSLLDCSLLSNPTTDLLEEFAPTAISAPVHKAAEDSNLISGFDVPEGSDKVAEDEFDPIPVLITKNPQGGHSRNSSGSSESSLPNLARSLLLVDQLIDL

CSK, sequence (P41240 whole entry): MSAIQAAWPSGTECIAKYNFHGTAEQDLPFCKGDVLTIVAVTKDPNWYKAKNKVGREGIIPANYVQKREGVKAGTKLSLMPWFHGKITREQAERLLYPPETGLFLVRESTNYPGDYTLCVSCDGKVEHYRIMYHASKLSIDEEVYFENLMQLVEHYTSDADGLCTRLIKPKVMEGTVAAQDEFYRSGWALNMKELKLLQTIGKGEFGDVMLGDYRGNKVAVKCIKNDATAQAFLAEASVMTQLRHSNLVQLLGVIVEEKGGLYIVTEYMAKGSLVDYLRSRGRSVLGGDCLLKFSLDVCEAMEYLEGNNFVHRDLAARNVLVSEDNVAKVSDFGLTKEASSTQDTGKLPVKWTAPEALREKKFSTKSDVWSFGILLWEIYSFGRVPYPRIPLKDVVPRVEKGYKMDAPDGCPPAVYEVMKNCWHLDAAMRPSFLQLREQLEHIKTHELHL
GSK3A, sequence (P49840 whole entry): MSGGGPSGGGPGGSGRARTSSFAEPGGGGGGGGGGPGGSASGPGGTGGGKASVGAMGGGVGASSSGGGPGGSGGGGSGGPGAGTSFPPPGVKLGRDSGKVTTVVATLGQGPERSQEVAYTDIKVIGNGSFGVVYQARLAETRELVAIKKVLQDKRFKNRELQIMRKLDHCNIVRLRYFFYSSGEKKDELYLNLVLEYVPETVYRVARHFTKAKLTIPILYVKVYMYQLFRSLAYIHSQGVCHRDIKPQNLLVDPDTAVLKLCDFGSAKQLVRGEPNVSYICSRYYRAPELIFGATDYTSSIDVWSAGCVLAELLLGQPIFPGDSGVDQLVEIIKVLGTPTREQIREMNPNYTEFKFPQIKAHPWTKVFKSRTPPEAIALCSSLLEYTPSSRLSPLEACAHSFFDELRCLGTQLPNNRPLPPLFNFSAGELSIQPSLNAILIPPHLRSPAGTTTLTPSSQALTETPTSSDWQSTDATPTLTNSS
TYK2, sequence (P29597 whole entry): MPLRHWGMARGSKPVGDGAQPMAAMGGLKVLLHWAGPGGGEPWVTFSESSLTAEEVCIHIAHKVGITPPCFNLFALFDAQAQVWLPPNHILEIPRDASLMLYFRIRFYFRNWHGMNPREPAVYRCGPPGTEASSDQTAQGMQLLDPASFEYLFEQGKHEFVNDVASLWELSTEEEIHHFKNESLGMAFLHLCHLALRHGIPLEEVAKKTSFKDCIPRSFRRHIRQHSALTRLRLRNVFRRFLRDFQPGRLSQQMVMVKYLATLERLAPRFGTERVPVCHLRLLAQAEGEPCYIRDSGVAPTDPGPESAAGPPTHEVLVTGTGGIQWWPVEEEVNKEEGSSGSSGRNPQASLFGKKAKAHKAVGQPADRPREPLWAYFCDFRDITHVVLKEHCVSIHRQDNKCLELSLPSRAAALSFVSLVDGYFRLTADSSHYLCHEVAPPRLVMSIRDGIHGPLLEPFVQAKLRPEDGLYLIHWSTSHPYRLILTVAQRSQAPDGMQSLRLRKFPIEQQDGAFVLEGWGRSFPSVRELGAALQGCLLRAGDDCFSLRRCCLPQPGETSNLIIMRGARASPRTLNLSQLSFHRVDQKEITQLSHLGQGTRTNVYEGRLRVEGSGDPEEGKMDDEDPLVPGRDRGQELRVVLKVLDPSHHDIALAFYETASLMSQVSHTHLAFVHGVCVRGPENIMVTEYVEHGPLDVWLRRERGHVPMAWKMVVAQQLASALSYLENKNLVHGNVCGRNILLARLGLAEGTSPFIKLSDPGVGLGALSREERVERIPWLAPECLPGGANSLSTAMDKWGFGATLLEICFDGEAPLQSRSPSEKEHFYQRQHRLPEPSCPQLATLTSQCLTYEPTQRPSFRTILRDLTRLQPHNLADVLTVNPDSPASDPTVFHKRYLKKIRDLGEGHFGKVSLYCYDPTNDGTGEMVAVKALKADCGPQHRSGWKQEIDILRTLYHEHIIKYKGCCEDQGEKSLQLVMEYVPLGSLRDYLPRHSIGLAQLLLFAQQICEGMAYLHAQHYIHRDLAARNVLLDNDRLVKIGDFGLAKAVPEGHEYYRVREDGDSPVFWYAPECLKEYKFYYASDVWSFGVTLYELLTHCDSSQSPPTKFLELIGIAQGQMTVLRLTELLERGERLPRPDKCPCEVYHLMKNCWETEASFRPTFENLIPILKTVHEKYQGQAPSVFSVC
BTK, sequence (Q06187 whole entry): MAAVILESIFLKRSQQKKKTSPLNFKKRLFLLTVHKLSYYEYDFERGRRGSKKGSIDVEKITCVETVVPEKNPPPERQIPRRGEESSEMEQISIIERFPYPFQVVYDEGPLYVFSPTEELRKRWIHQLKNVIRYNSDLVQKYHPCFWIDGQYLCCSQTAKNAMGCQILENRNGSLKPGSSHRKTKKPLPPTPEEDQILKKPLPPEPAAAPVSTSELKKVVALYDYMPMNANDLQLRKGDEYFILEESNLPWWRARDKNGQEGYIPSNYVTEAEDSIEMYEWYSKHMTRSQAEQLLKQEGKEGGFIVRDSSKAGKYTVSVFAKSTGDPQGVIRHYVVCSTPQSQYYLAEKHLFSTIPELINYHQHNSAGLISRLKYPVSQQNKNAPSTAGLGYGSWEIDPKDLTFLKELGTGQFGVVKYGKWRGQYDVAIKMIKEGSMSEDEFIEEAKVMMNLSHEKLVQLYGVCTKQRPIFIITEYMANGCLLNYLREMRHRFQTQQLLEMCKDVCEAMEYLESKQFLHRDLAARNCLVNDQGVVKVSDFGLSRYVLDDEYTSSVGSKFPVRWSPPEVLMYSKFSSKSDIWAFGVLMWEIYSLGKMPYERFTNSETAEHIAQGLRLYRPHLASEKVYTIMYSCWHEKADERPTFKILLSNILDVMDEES

CN1CCN(c2ccc(Nc3ncc(C#N)c(Nc4ccccc4C(N)=O)n3)cc2)CC1.Cl [TCMDC-134116]
IC50 [1]: 0.1 µM and 0.092 µM | IC50 [2]: 1.4 µM and 1.1 µM | IC50 [3]: 0.34 µM and 0.33 µM | IC50 [4]: > 20 µM | IC50 [5]: 4.1 µM | IC50 [6]: 0.6 µM and 0.67 µM | IC50 [7]: 1.3 µM | IC50 [8]: 0.19 µM

Cl.NCC1(c2nc(-c3ccc(Cl)c(O)c3)c(-c3ccncc3)[nH]2)CCCCC1 [TCMDC-141154]
IC50 [1]: > 20 µM | IC50 [2]: > 20 µM | IC50 [3]: 5.2 µM and 4.3 µM | IC50 [4]: > 20 µM | IC50 [5]: 4.4 µM | IC50 [6]: > 20 µM | IC50 [7]: > 20 µM | IC50 [8]: > 20 µM

CN(C)CC(O)COc1ccc(Nc2ncc([N+](=O)[O-])c(Nc3ccccc3O)n2)cc1.O=C(O)C(F)(F)F (stereo not drawn) [TCMDC-141399]
IC50 [1]: 1.9 µM | IC50 [2]: 6.7 µM and 7.4 µM | IC50 [3]: 1.9 µM | IC50 [4]: > 20 µM | IC50 [5]: > 20 µM | IC50 [6]: > 20 µM | IC50 [7]: > 20 µM | IC50 [8]: > 20 µM
